Source: patent EP0306167A2, “Stabilization of enzymes by inhibiting proteolytic enzyme contaminants” (TECHNICON INSTRUMENTS CORPORATION(a Delaware corporation), priority 1987, dated 1989)
Entries after “also recorded” stand apart in the source; their conditions may differ. Where two headings read alike, the source gives them in different places.

Experiments:
[1] = test system: phosphoenol pyruvate carboxylase; assay: Stability of phosphoenol pyruvate carboxylase on storage with protease inhibitors (activity assay on TECHNICON RA-1000); format: biochemical; conditions: for Percent Activity Remaining at Time (hrs.): about 20 mg/ml enzyme, Benzamidine 4mM, p-Amino benzamidine 4mM, TPCK 0.5mM, Soya Bean Trypsin Inhibitor 10 mg/ml, Egg white Trypsin Inhibitor 10 mg/ml, BSA 20mg/ml, Aprotinin 0.5 mg/ml, PMSF 1 mM
Protocol: The activity assays to determine the stability of phosphoenol pyruvate carboxylase were done on a TECHNICON RA-1000 clinical analyzer in accordance with established protocols for such analysis. (TECHNICON RA-1000 is a registered trademark of Technicon Instruments Corporation, Tarrytown, N.Y.) In accordance with such protocol, the enzyme solution, R₂, was placed in the sample cup. The other constituents of the assay mixture, R₁, were placed in the reagent boat. 10 µl of R₂ were mixed with 350 µl of R₁. The reaction was done at 37°C and there was a 30 second incubation period before the readings were taken. The reported activity remaining refers to the percentage of the activity determined when fresh solutions were made initially.
The solid enzyme samples were dissolved in 50 mM Hepes, pH 7.0 containing 0.1% benzoic and .01% gentamicin (R₂). The stability study was done in R₂ containing about 20 mg/ml enzyme at room temperature. The ratio of soya bean trypsin inhibitor to phosphoenol pyruvate by weight mg/ml was 10:20. The specific activity of soya bean was 7000 BAEE inhibitor units/mg and that of phosphoenol pyruvate was one unit/mg. The components of the activity assay were in R₁ as NADH, 1.3 x 10⁻⁴M; phosphoenol pyruvate, 2.5 x 10⁻³M; magnesium acetate, 1.06 x 10⁻²M and NaHCO₃, 5 x 10⁻³M; were in 104 mM tris-acetate pH 8.3 (at room temperature).
The samples were stored at room temperature in 50 mM Hepes buffer pH 7.0 containing 0.1% benzoate acid .01% gentamycin. […]

PGM/PAGM enzyme solution = assay: Stability of PGM/PAGM enzyme solution on storage with protease inhibitors (coupled glucose-6-phosphate dehydrogenase rate assay at 340 nm); format: biochemical, Porcine; conditions: for time enzyme activity was protected / stabilizing effect compared between inhibitors (in words): DEAE-Tris acryl purified preparation, 4°C; for time enzyme activity was protected: 50 mM imidazole chloride pH 7.5, p-aminobenzamidine 5mM, benzamidine 5mM; for stabilizing effect compared between inhibitors (in words): pH 7.5, aprotinin .5 mg/ml, leupeptin 0.5 mg/ml, α,α′-bipyridal 2 mM; for effect on PGM/PAGM activity (in words): TPCK 2mM
Protocol: The presence of proteases was detected pursuant to the protocol discussed above. The quantitative assay for protease activity was done with N-α - benzoyl-L-arginine-p-nitroanalide as a substrate by a published procedure (H. Fritz, I. Truntschold and E. Werle; "Methods of Enzymatic Analysis", Ed. H. Bergmeyer, Vol. II, Academic Press, N.4. 1974). The method consist of (1) 0.2M triethanolamine buffer (pH 7.8) with 20 mM CaCl₂, (2) trypsin standard in 1 mM HCl, (3) substrate solution, 2.2 mM in water. The sensitivity can be enhanced four-fold if the concentration of the substrate was increased five times. A clear solution of the substrate was obtained by placing it in a boiling water bath for 5 minutes. The reaction mixture consisted of a .675 ml buffer and 0.325 ml substrate solution. The rate was measured at 405 nm at 37°C on a DU 8 spectrophotometer from Beckman Instruments, Inc. It was possible to detect protease activity equivalent to 1 mg/L trypsin when the standard trypsin was activity of 11000 u/mg with substrate N-α-benzoyl-L-arginine p-nitroanalide. The activity of the PGM/PAGM enzyme solution was determined using the following reaction mixture. NAD⁺, 10⁻³M; glucose-1-phosphate, 2x10⁻⁴M; glucose-1,6-diphosphate, 10⁻⁵M; Mg Acetate, 2 x 10⁻³M; EDTA, 2 x 10⁻⁴M and 1 u/ml glucose-6-phosphate dehydrogenase in 50 mM imidazole acetate, pH 7.5. The reaction was started by adding an aliquot of the enzyme solution and the rate was measured 37°C at 340 nm on a DU-8 spectro- photometer. This method is essentially similar to the literature procedures (W. Ray and E. Peck, The Enzymes, 6, 407, 1972. H. Bergmeyer, "Methods of Enzymatic Analysis" Ed. H. Bergmeyer Vol. I, Academic Press, N.Y. 1974).
A series of experiments were done to determine the stabilizing effect of various inhibitors. In one experiment the enzyme preparation included was 30-70% ammonium sulfate fraction. The effects of soya bean trypsin inhibitor (10 mg/ml), tosyl phenyl chloromethyl ketone (TPCK) (2mM) and α-antitrypsin inhibitor (2 mg/ml) were studied at pH 5.0 and 7.5, in 50 mM imidazole acetate buffer; 0.2 mM EDTA, 10 mM magnesium acetate. The stability was done at two pH values as the formation and dissociation of the inhibitor complex with trypsin is pH dependent. […] PAGM enzyme may also have serine residues at the active site. […] There was some protection afforded by α-antitrypsin inhibitor over longer periods of time at pH 7.5.
In another experiment, the enzyme preparation after ammonium sulfate fractionation was purified through DEAE-Tris acryl column chromatography. […] These trace amounts of proteases were sufficient to cause denaturation of the enzyme. A stability study using various inhibitors of proteases: aprotinin (.5 mg/ml), soybean trypsin inhibitor (5 mg/ml), p-aminobenzamidine (5mM), benzamidine (5mM), α,α′-bipyridal (2 mM) and leupeptin (0.5 mg/ml) was done. The enzyme was stored at 4°C in 50 mM imidazole chloride, 2 mM Mg acetate and .2 mM EDTA, pH 7.5. The activity was assayed at different times. […] The enzymes were stable in the presence of soya bean trypsin inhibitor for one week.

[2] = 20 Hrs, absence of (NH₄)₂SO₄, PMSF 1mM, α-Antitrypsin Inhibitor 5 mg/ml, p-Nitrophenyl-p-Guanidinobenzoate 0.1mg/ml, Ovomucoid 10 mg/ml, D-Tryptophan methyl ester 5mM, 4-Phenyl butylamine 10mM, D-Arginine 10mM, D-phenylalanine 5mM, control 35
[3] = 25 Hrs, absence of (NH₄)₂SO₄, PMSF 1mM, α-Antitrypsin Inhibitor 5 mg/ml, p-Nitrophenyl-p-Guanidinobenzoate 0.1mg/ml, Ovomucoid 10 mg/ml, D-Tryptophan methyl ester 5mM, 4-Phenyl butylamine 10mM, D-Arginine 10mM, D-phenylalanine 5mM, control 26
[4] = 2.5 hrs at room temperature in R2 (50 mM Hepes pH 7.0), control 80
[5] = 5 hrs at room temperature in R2 (50 mM Hepes pH 7.0), control 80
[6] = 23 hrs at room temperature in R2 (50 mM Hepes pH 7.0), control 25
[7] = 20 Hrs, in presence of (NH₄)₂SO₄ (50 mM), inhibitor concentrations as without salt (PMSF 1mM, α-Antitrypsin Inhibitor 5 mg/ml, p-Nitrophenyl-p-Guanidinobenzoate 0.1mg/ml, Ovomucoid 10 mg/ml, D-Tryptophan methyl ester 5mM)
[8] = 25 Hrs, in presence of (NH₄)₂SO₄ (50 mM), inhibitor concentrations as without salt (PMSF 1mM, α-Antitrypsin Inhibitor 5 mg/ml, p-Nitrophenyl-p-Guanidinobenzoate 0.1mg/ml, Ovomucoid 10 mg/ml, D-Tryptophan methyl ester 5mM)
[9] = NaCl up to 200 mM replacing (NH₄)₂SO₄ with 10 mg/ml ovomucoid, phosphoenol pyruvate 5 mM

| Percent Activity Remaining at Time (Hrs.) [1, 2] | Percent Activity Remaining at Time (Hrs.) [1, 3] | Structure (SMILES) | Percent Activity Remaining at Time (hrs.) [1, 4] | Percent Activity Remaining at Time (hrs.) [1, 5] | Percent Activity Remaining at Time (hrs.) [1, 6] | further results |
| --- | --- | --- | --- | --- | --- | --- |
| 57% | 51% | NCCCCc1ccccc1 [4-Phenyl butylamine] | – | – | – | – |
| 32% | 26% | COC(=O)[C@H](N)Cc1c[nH]c2ccccc12 [D-Tryptophan methyl ester] | – | – | – | Percent Activity Remaining at Time (Hrs.) [1, 7]: 68%; Percent Activity Remaining at Time (Hrs.) [1, 8]: 71% |
| 57% | 51% | N[C@H](Cc1ccccc1)C(=O)O [D-phenylalanine] | – | – | – | – |
| 42% | 36% | N=C(N)Nc1ccc(C(=O)Oc2ccc([N+](=O)[O-])cc2)cc1 [p-Nitrophenyl-p-Guanidinobenzoate] | – | – | – | Percent Activity Remaining at Time (Hrs.) [1, 7]: 60%; Percent Activity Remaining at Time (Hrs.) [1, 8]: 57% |

More lines, now with the values behind:

| Structure (SMILES) | Percent Activity Remaining at Time (Hrs.) [1, 2] | Percent Activity Remaining at Time (Hrs.) [1, 3] | Percent Activity Remaining at Time (hrs.) [1, 4] | Percent Activity Remaining at Time (hrs.) [1, 5] | Percent Activity Remaining at Time (hrs.) [1, 6] | further results |
| --- | --- | --- | --- | --- | --- | --- |
| N=C(N)c1ccccc1 [Benzamidine] | – | – | 83% | 83% | 32% | time enzyme activity was protected (PGM/PAGM enzyme solution): 5 days |
| N=C(N)NCCC[C@@H](N)C(=O)O [D-Arginine] | 30% | 24% | – | – | – | – |
| CC(=O)N[C@@H](CC(C)C)C(=O)N[C@@H](CC(C)C)C(=O)N[C@H](C=O)CCCNC(=N)N [Leupeptin] | – | – | – | – | – | stabilizing effect compared between inhibitors (in words) (PGM/PAGM enzyme solution): equally effective |
| [Cl-].[Na+] [NaCl] | – | – | – | – | – | stabilizing effect on phosphoenol pyruvate carboxylase (in words) [1]: negligible |
| O=S(=O)(F)Cc1ccccc1 [PMSF, phenyl methyl sulfonyl fluoride] | 71% | 61% | 87% | 89% | 56% | Percent Activity Remaining at Time (Hrs.) [1, 7]: 90%; Percent Activity Remaining at Time (Hrs.) [1, 8]: 88%; stabilizing effect on phosphoenol pyruvate carboxylase (in words) [1, 9]: especially effective; also recorded: most effective stabilizer; original activity ([1]; PMSF in combination with ammonium sulfate, for 24 hours): 88%; Effectiveness ([1]; protection of PEPC activity, comparison of all effective inhibitors): 24 to 48 h |
| Cc1ccc(S(=O)(=O)N[C@@H](Cc2ccccc2)C(=O)CCl)cc1 [TPCK] | – | – | 74% | 68% | 28% | effect on PGM/PAGM activity (in words) (PGM/PAGM enzyme solution; pH 5.0, 30-70% ammonium sulfate fraction): destroyed the activity sooner than the control; effect on PGM/PAGM activity (in words) (PGM/PAGM enzyme solution; pH 7.5, 30-70% ammonium sulfate fraction, soya bean trypsin inhibitor 10 mg/ml, α-antitrypsin inhibitor 2 mg/ml): did not show any additional inactivation |
| N=C(N)c1ccc(N)cc1 [p-Amino benzamidine] | – | – | 75% | 75% | 28% | time enzyme activity was protected (PGM/PAGM enzyme solution): 14 days |
| C=C(OP(=O)(O)O)C(=O)O [phosphoenol pyruvate] | – | – | – | – | – | stabilizing effect on phosphoenol pyruvate carboxylase (in words) [1, 9]: unstable |
| c1ccc(-c2ccccn2)nc1 [α,α′-bipyridal] | – | – | – | – | – | stabilizing effect compared between inhibitors (in words) (PGM/PAGM enzyme solution): least effective |
